Data from US11980774B2, “Illumination devices and related methods for phototherapeutic light treatments in the presence of vitamins” (priority 2021, dated 2024).

Tested on: New York variant of SARS-CoV-2 (SARS-CoV-2 NY)
Assay: 425 nm light inhibition of SARS-CoV-2 NY in the presence of riboflavin in artificial saliva, virus titer
Assay type: cell-based
Settings: FIG. 2

Cc1cc2nc3c(=O)[nH]c(=O)nc-3n(C[C@H](O)[C@H](O)[C@H](O)CO)c2cc1C [riboflavin]
change in SARS-CoV-2 NY viral load compared with the 0 μM RFN sample (10 μM RFN in artificial saliva, 425 nm light, beginning with doses as low as 3 J/cm^2): notable decreases
viral load of SARS-CoV-2 NY after treatment (10 μM RFN, 425 nm light 15 J/cm^2): below measurement background levels
